Experiments:
[1] = tested on: Puccinia recondita f. Sp. Tritici; assay: Puccinia recondita f. sp. tritici / wheat / leaf disc preventative (brown rust); assay type: in vivo; details: foliar, 168 h, 200 ppm in the applied formulation, wheat leaf segments cv. Kanzler, preventative, inoculated 1 day after application, assessed 7 to 9 days after application, vs untreated, read-out: disease control
Method in brief: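 Preventative leaf-segment test: spray application of diluted formulated compound on wheat cv. Kanzler, spore inoculation after 1 day. Percent control relative to untreated segments rated 7 to 9 days post-application, with incubation at 19° C, 75% relative humidity, 12 h photoperiod.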

[2] = tested on: Puccinia recondita f. Sp. Tritici; assay: Puccinia recondita f. sp. tritici / wheat / leaf disc curative (brown rust); assay type: in vivo; details: foliar, 144 h, 200 ppm in the applied formulation, wheat leaf segments cv. Kanzler, applied 1 day after inoculation, assessed 6 to 8 days after application, vs untreated, read-out: disease control
Method in brief: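 Compound applied 1 day after spore inoculation of wheat cv. Kanzler leaf segments on agar (dark, 19 °C, 75% RH before treatment). After further incubation under 12 h light/12 h dark at 19 °C and 75% RH, disease control relative to untreated segments rated 6–8 days post-application.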

Phakopsora pachyrhizi = Phakopsora pachyrhizi / soybean / leaf disc preventative (Asian soybean rust); assay type: in vivo; details: foliar, 288 h, 200 ppm in the applied formulation, soybean leaf disks, inoculated one day after application, assessed 12 to 14 days after application, vs untreated, read-out: disease control
Method in brief: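 Read-out is percent disease control relative to untreated check discs, assessed once untreated discs show adequate disease, 12 to 14 days after application. Compounds, tested at 200 ppm in the applied formulation, are sprayed onto soybean leaf discs one day before inoculation with a spore suspension.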

[3] = tested on: Glomerella Lagenarium (Colletotrichum Lagenarium); assay: Glomerella lagenarium (Colletotrichum lagenarium) liquid culture / cucumber / preventative (anthracnose); assay type: cell-based; details: Colletotrichum orbiculare; 20 ppm in the applied formulation; liquid culture in PDB, 24° C., inhibition of growth measured photometrically 3 to 4 days after application, vs untreated; read-out: disease control
Method in brief: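 Conidia from cryogenic storage were mixed into potato dextrose broth. This was added to compound diluted from DMSO into 0.025% Tween20, tested at 20 ppm. Plates were incubated in the dark at 24 °C and 96% relative humidity, and growth was read photometrically after 2–7 days as % activity versus untreated check.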

Uromyces viciae-Fabae = assay: Uromyces viciae-fabae / field bean / leaf disc preventative (faba-bean rust); assay type: in vivo; details: foliar, 288 h, 100 ppm in the applied formulation, field bean leaf discs, inoculated two hours after application, assessed 12 days after application, vs untreated, read-out: disease control
Description: Leaf disks or leaf segments of various plant species are cut from plants grown in a greenhouse. The cut leaf disks or segments are placed in multiwell plates (24-well format) onto water agar. The leaf disks are sprayed with a test solution before (preventative) or after (curative) inoculation. Compounds to be tested are prepared as DMSO solutions (max. 10 mg/ml) which are diluted to the appropriate concentration with 0.025% Tween20 just before spraying. The inoculated leaf disks or segments are incubated under defined conditions (temperature, relative humidity, light, etc.) according to the respective test system. A single evaluation of disease level is carried out 3 to 14 days after inoculation, depending on the pathosystem. Percent disease control relative to the untreated check leaf disks or segments is then calculated.
Field bean leaf discs are placed on water agar in multiwell plates (96-well format) and 10 μl of the formulated test compound diluted in acetone and a spreader pipetted onto the leaf disc. Two hours after application leaf discs are inoculated by spraying a spore suspension on the lower leaf surface. The leaf discs are incubated in a climate cabinet at 22° C. with 18 hour day and 70% relative humidity. The activity of a compound is assessed as percent disease control compared to untreated when an appropriate level of disease damage appears in untreated check leaf disks (12 days after application).
The following compounds at 100 ppm in the applied formulation give at least 80% disease control in this test when compared to untreated control leaf discs under the same conditions, which show extensive disease development.

CCn1cc(-c2cn(Cc3ccc(-c4noc(C(F)(F)F)n4)cc3)nn2)c(C)n1 [Compound 1.1, 3-[4-[[4-(1-ethyl-3-methyl-pyrazol-4-yl)triazol-1-yl]methyl]phenyl]-5-(trifluoromethyl)-1,2,4-oxadiazole]
≥ 80%: pest or weed control at 200 ppm [1] | pest or weed control at 200 ppm [2] | pest or weed control at 200 ppm (Phakopsora pachyrhizi) | inhibition of growth at 20 ppm [3] | pest or weed control at 100 ppm (Uromyces viciae-Fabae)
116.2 to 118.2 °C: melting point

CCn1ncc(-c2cn(Cc3ccc(-c4noc(C(F)(F)F)n4)cc3)nn2)c1C [Compound 1.2, 3-[4-[[4-(1-ethyl-5-methyl-pyrazol-4-yl)triazol-1-yl]methyl]phenyl]-5-(trifluoromethyl)-1,2,4-oxadiazole]
≥ 80%: pest or weed control at 200 ppm [1] | pest or weed control at 200 ppm [2] | pest or weed control at 200 ppm (Phakopsora pachyrhizi) | inhibition of growth at 20 ppm [3] | pest or weed control at 100 ppm (Uromyces viciae-Fabae)
138.3 to 140.1 °C: melting point

FC(F)(F)c1nc(-c2ccc(Cn3cc(C4CC4)nn3)cc2)no1 [Compound 1.5, 3-[4-[(4-cyclopropyltriazol-1-yl)methyl]phenyl]-5-(trifluoromethyl)-1,2,4-oxadiazole]
≥ 80%: pest or weed control at 200 ppm [1] | pest or weed control at 200 ppm [2] | pest or weed control at 200 ppm (Phakopsora pachyrhizi) | inhibition of growth at 20 ppm [3] | pest or weed control at 100 ppm (Uromyces viciae-Fabae)
115.5 to 117.2 °C: melting point

Cn1cncc1-c1cn(Cc2ccc(-c3noc(C(F)(F)F)n3)cc2)nn1 [Compound 1.6, 3-[4-[[4-(3-methylimidazol-4-yl)triazol-1-yl]methyl]phenyl]-5-(trifluoromethyl)-1,2,4-oxadiazole]
108.7 to 110.3 °C: melting point
≥ 80%: pest or weed control at 200 ppm [1] | pest or weed control at 200 ppm [2] | pest or weed control at 200 ppm (Phakopsora pachyrhizi) | inhibition of growth at 20 ppm [3] | pest or weed control at 100 ppm (Uromyces viciae-Fabae)

CC(C)(C)OC(=O)NCc1cn(Cc2ccc(-c3noc(C(F)(F)F)n3)cc2)nn1 [Compound 1.9, tert-butyl N-[[1-[[4-[5-(trifluoromethyl)-1,2,4-oxadiazol-3-yl]phenyl]methyl]triazol-4-yl]methyl]carbamate]
134.7 to 136.9 °C: melting point
≥ 80%: pest or weed control at 200 ppm [1] | pest or weed control at 200 ppm [2] | pest or weed control at 200 ppm (Phakopsora pachyrhizi) | inhibition of growth at 20 ppm [3] | pest or weed control at 100 ppm (Uromyces viciae-Fabae)

Cc1cc(C)n(Cc2ccc(-c3noc(C(F)(F)F)n3)cc2)n1 [Compound 1.15, 3-[4-[(3,5-dimethylpyrazol-1-yl)methyl]phenyl]-5-(trifluoromethyl)-1,2,4-oxadiazole]
≥ 80%: pest or weed control at 200 ppm [1] | pest or weed control at 200 ppm [2] | pest or weed control at 200 ppm (Phakopsora pachyrhizi) | inhibition of growth at 20 ppm [3] | pest or weed control at 100 ppm (Uromyces viciae-Fabae)
53 to 58 °C: melting point

FC(F)(F)c1nc(-c2ccc(Cn3cccn3)cc2)no1 [Compound 1.16, 3-[4-(pyrazol-1-ylmethyl)phenyl]-5-(trifluoromethyl)-1,2,4-oxadiazole]
36 to 41 °C: melting point
≥ 80%: pest or weed control at 200 ppm [1] | pest or weed control at 200 ppm [2] | pest or weed control at 200 ppm (Phakopsora pachyrhizi) | inhibition of growth at 20 ppm [3] | pest or weed control at 100 ppm (Uromyces viciae-Fabae)

FC(F)(F)c1nc(-c2ccc(Cn3ccnc3)cc2)no1 [Compound 1.18, 3-[4-(imidazol-1-ylmethyl)phenyl]-5-(trifluoromethyl)-1,2,4-oxadiazole]
45 to 55 °C: melting point
≥ 80%: pest or weed control at 200 ppm [1] | pest or weed control at 200 ppm [2] | pest or weed control at 200 ppm (Phakopsora pachyrhizi) | inhibition of growth at 20 ppm [3] | pest or weed control at 100 ppm (Uromyces viciae-Fabae)

FC(F)(F)c1nc(-c2ccc(Cn3cncn3)cc2)no1 [Compound 1.19, 3-[4-(1,2,4-triazol-1-ylmethyl)phenyl]-5-(trifluoromethyl)-1,2,4-oxadiazole]
≥ 80%: pest or weed control at 200 ppm [1] | pest or weed control at 200 ppm [2] | pest or weed control at 200 ppm (Phakopsora pachyrhizi) | inhibition of growth at 20 ppm [3] | pest or weed control at 100 ppm (Uromyces viciae-Fabae)
72 to 77 °C: melting point

— patent US10798941B2, “Microbiocidal oxadiazole derivatives” (SYNGENTA PARTICIPATIONS AG, priority 2016, dated 2020)
